In data set [1] the target is T1, Metallo-beta-lactamase type 2 (Bacteria, UniProt C7C422). Briefly: Binding affinity to wildtype bacterial NDM-1 (unknown origin) expressed in Escherichia coli BL21(DE3) cells assessed as dissociation constant.
For data set [2], the target named is T1, Metallo-beta-lactamase type 2. Briefly: Inhibition of wildtype bacterial NDM-1 (unknown origin) expressed in Escherichia coli BL21(DE3) cells using nitrocefin as substrate incubated for 20 mins by absorbance based assay.
Data set [3] has as its system Enterobacteriaceae. Briefly: Antibacterial activity against NDM-1-producing Enterobacteriaceae. Format: functional.
Data set [4] concerns the target Angiotensin-converting enzyme (Homo sapiens, UniProt P12821). Briefly: Inhibition of angiotensin-converting enzyme (unknown origin).
Data set [5] can be described thus: Acute toxicity in ip dosed CD1 mouse assessed as lethal dose measured for 7 days. It is filed as organism-based. Particulars: in vivo, time 7 day.
Data set [6] relates to Escherichia coli. Briefly: Synergistic activity against IMP-1 producing engineered Escherichia coli NUBL-24 assessed as fractional inhibition concentration index incubated for 16 to 20 hrs in presence of meropenem by CLSI-based microdilution method. Format: functional. Particulars: time 16-20 hrs. Background: In broth dilution the organism is exposed to a series of concentrations in liquid medium.

Data set [7] deals with Escherichia coli. Briefly: Synergistic activity against VIM-2-producing Escherichia coli assessed as fractional inhibition concentration index in presence of ceftazidime by checkerboard assay. Format: functional.
The subject of data set [8] is Escherichia coli. Nature of the data set: Synergistic activity against IMP-1 producing Escherichia coli NUBL-24 infected in CD1 mouse assessed as death rescue at 100 mg/kg, ip measured for 7 days in presence of meropenem relative to control. It is filed as functional. The settings on record: time 7 day.
The subject of another data set is Klebsiella pneumoniae. Briefly: Synergistic activity against NDM-1/VIM-1-producing Klebsiella pneumoniae MS5674 assessed as fractional inhibition concentration index in presence of meropenem by checkerboard assay. Format: functional.
Another data set has as its system HeLa. Nature of the data set: Cytotoxicity against human HeLa cells at >1000 uM incubated for 24 hrs by Celltiter assay relative to control. It is filed as toxicity, cell-based.
The nature of data set [9]: Binding affinity to bacterial Metallo-beta-lactamase VIM-2 (unknown origin) expressed in Escherichia coli BL21(DE3) cells assessed as inhibition constant. Also on record: species or system Bacteria.
A short description of data set [10]: Acute toxicity in iv dosed CD1 mouse assessed as lethal dose measured for 7 days. It is filed as organism-based. The settings on record: in vivo, time 7 day.
The nature of data set [11]: Binding affinity to bacterial Metallo-beta-lactamase IMP-1 (unknown origin) expressed in Escherichia coli BL21(DE3) cells assessed as inhibition constant. The arrangement: species or system Bacteria.
The subject of a further data set is Acinetobacter baumannii. Briefly: Antibacterial activity against MBL-producing Acinetobacter baumannii assessed as diameter of inhibition zone in presence of imipenem. Format: functional.
Data set [12] can be described thus: Inhibition of Acinetobacter baumannii Metallo-beta-lactamase IMP-1.
Data set [13] can be described thus: Cytotoxicity against human HeLa cells incubated for 24 hrs by PrestoBlue reagent based assay. Format: toxicity, cell-based.
Data set [14] is described as follows: Inhibition of bacterial Metallo-beta-lactamase GIM-1 using nitrocefin as substrate. Also on record: species or system Bacteria.
Data set [15] deals with T1, Metallo-beta-lactamase type 2. Nature of the data set: Inhibition of bacterial NDM-1 (unknown origin) using nitrocefin as substrate.
The test system of data set [16] is Enterobacteriaceae. Nature of the data set: Synergistic antibacterial activity against NDM-1-producing Carbapenem-resistant Enterobacteriaceae assessed as fractional inhibitory concentration index in presence of meropenem. It is filed as functional.
A short description of data set [17]: Cytotoxicity against human HEK293 cells incubated for 24 hrs by MTT assay. Format: toxicity, cell-based. (In general: Tetrazolium assays rely on reduction of a dye to a coloured formazan, in cell work by metabolically active cells.)
In data set [18] the target is T1, Metallo-beta-lactamase type 2. Briefly: Binding affinity to bacterial NDM-1 (unknown origin) using nitrocefin as substrate assessed as inhibition constant.
Data set [19] is described as follows: Cytotoxicity against human HepG2 cells incubated for 24 hrs by AlamarBlue-based assay. It is filed as toxicity, cell-based. On the technique in general: Alamar Blue is a resazurin reagent that responds to reducing activity.
The subject of the next data set is Vero C1008. Nature of the data set: Cytotoxicity against African green monkey Vero E6 cells at 40 ug/ml relative to control. Format: toxicity, cell-based. Particulars: chlorocebus sabaeus, at 40 µg/mL.
Another data set has as its system L929. Nature of the data set: Cytotoxicity against mouse L929 cells at 40 ug/ml relative to control. It is filed as toxicity, cell-based. Particulars: at 40 µg/mL.
For data set [20], the target named is T1, Metallo-beta-lactamase type 2. Nature of the data set: Inhibition of bacterial NDM-1 (unknown origin).
The test system of data set [21] is Escherichia coli. Briefly: Synergistic activity against multiple NDM-1-producing engineered Escherichia coli clinical isolate assessed as fractional inhibition concentration index in presence of meropenem. It is filed as functional.
Data set [22] has as its system Escherichia coli. Nature of the data set: Synergistic activity against NDM-1-producing engineered Escherichia coli assessed as fractional inhibition concentration index in presence of meropenem. Format: functional.
For another data set, the target named is Beta-lactamase VIM-1 (Bacteria, UniProt Q8GDC1). Briefly: Binding affinity to bacterial Metallo-beta-lactamase VIM-1 (unknown origin) assessed as dissociation constant.
The target in data set [23] is T1, Metallo-beta-lactamase type 2. Briefly: Inhibition of bacterial NDM-1 (unknown origin) using nitrocefin as substrate incubated for 10 mins followed by substrate addition by absorbance based assay.
Data set [24] deals with Escherichia coli. Nature of the data set: Antibacterial activity against NDM-1-producing Escherichia coli in presence of meropenem. It is filed as functional.

≈ marks a conversion by molar mass, not a printed value.

T1 sequence (C7C422 whole entry): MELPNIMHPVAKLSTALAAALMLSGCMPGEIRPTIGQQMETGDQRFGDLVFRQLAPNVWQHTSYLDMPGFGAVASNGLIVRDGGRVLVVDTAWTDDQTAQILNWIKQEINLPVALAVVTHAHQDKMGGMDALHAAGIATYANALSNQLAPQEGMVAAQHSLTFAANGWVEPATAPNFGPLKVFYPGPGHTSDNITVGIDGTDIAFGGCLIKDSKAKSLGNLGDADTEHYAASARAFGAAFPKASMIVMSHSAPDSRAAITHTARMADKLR
Angiotensin-converting enzyme, sequence (P12821 whole entry): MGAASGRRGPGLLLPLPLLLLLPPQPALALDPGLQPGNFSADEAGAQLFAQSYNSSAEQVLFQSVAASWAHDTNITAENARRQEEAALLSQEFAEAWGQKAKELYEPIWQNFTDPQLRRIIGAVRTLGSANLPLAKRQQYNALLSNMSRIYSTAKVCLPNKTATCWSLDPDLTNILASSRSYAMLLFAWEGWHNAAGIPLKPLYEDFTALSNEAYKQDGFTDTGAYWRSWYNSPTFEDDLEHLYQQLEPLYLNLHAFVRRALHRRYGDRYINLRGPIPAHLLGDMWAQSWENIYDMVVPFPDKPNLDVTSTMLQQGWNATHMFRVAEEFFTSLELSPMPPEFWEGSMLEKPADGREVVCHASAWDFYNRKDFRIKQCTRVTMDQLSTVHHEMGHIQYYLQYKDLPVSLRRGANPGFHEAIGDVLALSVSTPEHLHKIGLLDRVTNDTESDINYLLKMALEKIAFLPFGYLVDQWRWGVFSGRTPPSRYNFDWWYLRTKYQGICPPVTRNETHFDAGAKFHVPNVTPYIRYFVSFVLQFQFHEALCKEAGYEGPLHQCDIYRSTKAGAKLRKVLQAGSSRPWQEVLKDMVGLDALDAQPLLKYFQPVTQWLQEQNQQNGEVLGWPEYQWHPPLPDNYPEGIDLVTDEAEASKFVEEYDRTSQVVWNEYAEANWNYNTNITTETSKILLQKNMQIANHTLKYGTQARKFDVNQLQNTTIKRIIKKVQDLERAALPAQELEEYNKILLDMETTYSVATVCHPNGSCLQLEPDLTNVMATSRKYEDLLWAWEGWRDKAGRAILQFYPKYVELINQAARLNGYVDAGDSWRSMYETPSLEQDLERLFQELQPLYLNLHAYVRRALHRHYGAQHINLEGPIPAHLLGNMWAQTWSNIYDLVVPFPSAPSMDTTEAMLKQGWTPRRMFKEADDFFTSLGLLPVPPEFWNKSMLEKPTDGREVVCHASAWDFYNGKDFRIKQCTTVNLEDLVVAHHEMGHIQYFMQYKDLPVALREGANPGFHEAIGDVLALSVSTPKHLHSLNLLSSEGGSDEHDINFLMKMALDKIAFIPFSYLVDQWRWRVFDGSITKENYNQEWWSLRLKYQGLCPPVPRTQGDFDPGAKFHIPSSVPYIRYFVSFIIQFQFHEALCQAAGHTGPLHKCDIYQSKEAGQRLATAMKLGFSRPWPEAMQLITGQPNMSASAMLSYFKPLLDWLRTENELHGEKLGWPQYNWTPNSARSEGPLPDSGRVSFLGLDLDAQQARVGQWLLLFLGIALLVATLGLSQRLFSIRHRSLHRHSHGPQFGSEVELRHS

In general, Kd refers to a measure of binding affinity in units of concentration. What is called IC50 is the concentration needed to halve the response being measured. The term MIC50 denotes an inhibitory concentration at the 50% level, which refers to growth in some studies and to a panel of isolates in others. Consider `CC1=C[C@@]2(C)[C@@H](/C(C)=C/[C@]3(C)O[C@H](C)[C@@]4(C)O[C@H]43)[C@](C)([C@@H](O)[C@@H](C)C(=O)C(C)C)[C@H]2[C@]2(C)O[C@H]12`, for which the Kd in [1] worked out at 11.8 µM. Also, half-maximal inhibition in [2] (IC50) required 12.1 µM. In the data set on Enterobacteriaceae [3], the MIC50 worked out at 32 µM (≈ 15.1 µg/mL).
For orientation: LD50 means the dose expected to kill half of the subjects tested. Broadly, the Ki is a measure of affinity in units of concentration, obtained from inhibition or displacement. On to `Cc1oc(C)c(S(N)(=O)=O)c1C(=O)O`, for which, in data set [4], the IC50 is > 1000 µM. For the same compound, the LD50 at 168 h is > 1000 mg/kg in data set [5] and 246 mg/kg in data set [10]. Further, the “fractional inhibitory concentration index (FICI)” value in the data set on Escherichia coli [6] turned out to be 0.11; in the data set on Escherichia coli [7] it was 0.31; with Klebsiella pneumoniae, 0.19. For the same compound, the values for the Activity with Escherichia coli [8] and with HeLa were 90% and > 50%, respectively. For the same compound, the Ki in [9] is 2.81 µM; in data set [11], 0.22 µM.
On to `Oc1ccccc1/C=N/c1cccnc1/N=C/c1ccccc1O`, for which the “diameter of the inhibition zone (DIZ)” value with Acinetobacter baumannii was 23 mm. This compound also yielded an IC50 in data set [12] of 93.7 µM.
As for `COP(=O)(CCSC(C)=O)N(C)Cc1ccccn1` (racemic), the IC50 at 24 h in data set [13] is > 500 µM. In [14], this compound showed an IC50 of 109 µM.
On to `Oc1ccc(Br)cc1/C=N/c1cccnc1/N=C/c1cc(Br)ccc1O`, for which the “diameter of the inhibition zone (DIZ)” value in the data set on Acinetobacter baumannii came to 25 mm. This compound also showed an IC50 in data set [12] of 83.7 µM.
On to `COC(=O)[C@H]1CN(C(=O)CN(Cc2ccccn2)Cc2ccccn2)C[C@@H]1c1ccc(OCc2ccccc2)c(OC)c1` (racemic), for which, in [15], 51 µM corresponded to half-maximal inhibition (IC50). Further, the “fractional inhibitory concentration index (FICI)” value with Enterobacteriaceae [16] was found to be 0.01. Also, the IC50 at 24 h in data set [17] is > 128 µM. Moreover, the inhibition constant (Ki) in [18] came to 4.6 µM.
Turning to `CN(C[C@H](O)[C@@H](O)[C@H](O)[C@H](O)CO)C(=O)c1ccc(CN(Cc2ccccn2)Cc2ccccn2)nc1`, the IC50 at 24 h in data set [19] is > 100 µM.
Consider `CO[C@H]1C(=O)N2C(C(=O)O)=C(CSc3nc4ccccc4s3)CS[C@H]12`, for which the Activity in the data set on Vero C1008 and in the data set with L929 was > 60% in each case. Also, the IC50 in data set [20] came to 0.096 µM. For the same compound, the “fractional inhibitory concentration index (FICI)” value is recorded as 0.031 in the data set on Escherichia coli [21] and 0.02 in the data set on Escherichia coli [22].
As for `O=C1C(SCCCS)CCN1c1ccccc1` (configuration not stated), at Beta-lactamase VIM-1, the Kd is < 0.88 µM.
`O=C(O)c1cccc2oc(-c3ccc4cc(OCc5ccccc5)ccc4c3O)nc12` had an IC50 in data set [23] of 0.38 µM.
As usually defined, the MIC is the least concentration at which growth counts as inhibited. With `CC(C)c1cc2c(c(O)c1O)[C@@]1(C(=O)O)CCCC(C)(C)[C@@H]1CC2` [CARNOSIC ACID], the MIC in the data set on Escherichia coli [24] is 4 µg/mL.

For the origin of these results see ChEMBL document CHEMBL5356930, “Small-molecule inhibitors of bacterial-producing metallo-β-lactamases: insights into their resistance mechanisms and biochemical analyses of their activities” (RSC Med Chem, 2023).
